From patent US20110212834A1, “Pesticidal Compound Mixtures” (BAYER CROPSCIENCE AG, priority 2009, published 2011)

How the values were obtained:
Assay type in all cases: in vivo
Settings in all cases: 144 h, single compound, after 6 d
[1] = system: Myzus persicae; assay: Myzus persicae test, spray treatment of infested cabbage leaves
Protocol: (§1) To produce a suitable preparation of active compound, 1 part by weight of active compound is mixed with the stated amount of solvent and emulsifier, and the concentrate is diluted with emulsifier-containing water to the desired concentration.
Cabbage leaves (Brassica oleracea) which are heavily infested by the green peach aphid (Myzus persicae) are treated by being sprayed with the preparation of the active compound at the desired concentration.
After the specified period of time, the mortality in % is determined. 100% means that all the aphids have been killed; 0% means that none of the aphids have been killed.

[2] = system: Phaedon cochleariae; assay: Phaedon cochleariae larvae test, sprayed cabbage leaves
Protocol: as §1
Cabbage leaves (Brassica oleracea) are treated by being sprayed with the preparation of the active compound at the desired concentration and are infested with larvae of the mustard beetle (Phaedon cochleariae) as long as the leaves are still moist.
(§2) After the specified period of time, the mortality in % is determined. 100% means that all the beetle larvae have been killed; 0% means that none of the beetle larvae have been killed. According to the present application in this test e.g. the following combinations show a synergistic effect in comparison to the single compounds: […]

[3] = system: Tetranychus urticae; assay: Tetranychus test (OP-resistant), sprayed bean plants
Protocol: as §1
Bean plants (Phaseolus vulgaris) which are heavily infested with all stages of the two-spotted spider mite (Tetranychus urticae) are treated by being sprayed with the preparation of the active compound at the desired concentration.
After the specified period of time, mortality in % is determined. 100% means that all the spider mites have been killed; 0% means that none of the spider mites have been killed.

[4] = system: Spodoptera frugiperda; assay: Spodoptera frugiperda test, sprayed cabbage leaves
Protocol: as §1
Cabbage leaves (Brassica oleracea) are treated by being sprayed with the preparation of the active compound at the desired concentration and are infested with larvae of the fall army worm (Spodoptera frugiperda) as long as the leaves are still moist.
as §2, with “caterpillars” for “beetle larvae”

SMILES | mortality at 500 g/ha [1] [%] | mortality at 500 g/ha [2] [%] | mortality at 500 g/ha [4] [%] | further results
CC(C1CC1)C(O)(Cn1cncn1)c1ccc(Cl)cc1 (stereo not drawn) [Cyproconazole, cyproconazole] | 0 | 0 |  | mortality at 500 g/ha ([3]; 500 g/ha): 0%
CC(C)(C)C(O)(CCc1ccc(Cl)cc1)Cn1cncn1 (stereo not drawn) [Tebuconazole, tebuconazole] | 0 | 0 | 0 | 
CC1(C)[C@H](C=C(Cl)Cl)[C@H]1C(=O)OCc1c(F)c(F)cc(F)c1F [Transfluthrin] |  |  |  | mortality at 20 g/ha ([1]; 20 g/ha): 0%; mortality at 100 g/ha ([1]; 100 g/ha): 80%; mortality at 20 g/ha ([2]; 20 g/ha): 0%; mortality at 4 g/ha ([4]; 4 g/ha): 50%; mortality at 100 g/ha ([3]; 100 g/ha): 0%
OC(Cc1ccccc1Cl)(Cn1nc[nH]c1=S)C1(Cl)CC1 (stereo not drawn) [Prothioconazole] | 0 |  |  | 
CC(C)C1CCC(Cc2ccc(Cl)cc2)C1(O)Cn1cncn1 (stereo not drawn) [Ipconazole, ipconazole] | 0 | 0 | 0 | 
